What was measured:
[1] = biological target: T1, SALL4 ZNF1-2 (Homo sapiens, UniProt Q96SW2+Q9UJQ4); test: Cellular degradation assay, eGFP-SALL4 ZnF1-2 fusion with mCherry reporter in Flp-In 293 cells; type: cell-based; details: 5 h incubation, n=1
T1 construct: IKZF1Δ, IKZF2Δ, GSPT1 and SALL4 ZnF1-2 were subcloned; expressed in transfected cells; host or cells: Flp-In 293
How it was run: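 Read-out is the ratio of GFP-positive to mCherry-positive cells per well, imaged at 488 and 561 nm right after 5-hour compound exposure (normalised to 0.5% DMSO). Cells: Flp-In 293 stably carrying eGFP-P2A-mCherry construct fused to SALL4 ZnF1-2.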

[2] = biological target: GSPT1 (Homo sapiens, UniProt P15170+Q96SW2); test: Cellular degradation assay, eGFP-GSPT1 fusion with mCherry reporter in Flp-In 293 cells; type: cell-based; parameters: expressed in transfected cells; host or cells: Flp-In 293; details: 5 h incubation, n=1
How it was run: (§1)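 DC50,5 h derived by variable-slope nonlinear fit of the per-well ratio of GFP-positive to mCherry-positive cells, imaged after 5 h compound exposure at 0.5% DMSO.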

[3] = biological target: T2, IKZF1 (Homo sapiens, UniProt Q13422); test: Cellular degradation assay, eGFP-IKZF1Δ fusion with mCherry reporter in Flp-In 293 cells; type: cell-based; details: 5 h incubation, n=1
T2 construct: expressed in transfected cells; host or cells: Flp-In 293
How it was run: as §1

[4] = test system: IKZF2; test: Cellular degradation assay, eGFP-IKZF2Δ fusion with mCherry reporter in Flp-In 293 cells; type: cell-based; details: 5 h incubation, n=1
How it was run: as §1

[5] = biological target: T3, CRBN and Helios (IKZF2) (Homo sapiens, UniProt Q96SW2+Q9UKS7); test: TR-FRET dimerization assay (CRBN-IKZF2 ternary complex formation); type: binding; details: n=1
T3 construct: His (N); Strep (N)
How it was run: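 Compound-induced IKZF2 recruitment to CRBN was read as the 520/490 nm TR-FRET ratio after 15 min at rt. The mix held biotinylated IKZF2, BODIPY-labeled CRBN bound to DDB1 lacking the BPB propeller, tracer Tb-streptavidin and compound titrations; n=1, from ≥3 technical replicates per well.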

[6] = compound concentration 2.00E−05
[7] = compound concentration 2.00E−06
[8] = compound concentration 2.00E−07
[9] = compound concentration 6.6667E−05
[10] = compound concentration 6.6667E−06
[11] = compound concentration 6.6667E−07 (667 nM)

T1 sequence (Q9UJQ4 378-438 limits assumed): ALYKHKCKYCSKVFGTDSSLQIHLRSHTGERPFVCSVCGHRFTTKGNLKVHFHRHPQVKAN
T1 sequence (Q96SW2 whole entry, the tested form may be a part): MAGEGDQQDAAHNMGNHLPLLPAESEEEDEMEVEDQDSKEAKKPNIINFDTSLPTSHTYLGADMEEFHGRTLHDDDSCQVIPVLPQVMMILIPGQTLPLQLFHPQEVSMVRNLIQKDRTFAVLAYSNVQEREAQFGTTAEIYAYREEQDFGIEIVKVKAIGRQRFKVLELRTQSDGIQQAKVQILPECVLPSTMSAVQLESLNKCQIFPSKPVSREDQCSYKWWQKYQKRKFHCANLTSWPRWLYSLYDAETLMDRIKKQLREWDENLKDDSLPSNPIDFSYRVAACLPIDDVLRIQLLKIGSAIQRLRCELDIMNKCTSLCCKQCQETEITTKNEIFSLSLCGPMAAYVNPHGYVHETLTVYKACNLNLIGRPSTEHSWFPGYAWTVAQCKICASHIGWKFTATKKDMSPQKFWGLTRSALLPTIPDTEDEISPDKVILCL
T1 sequence (Q16531 whole entry partner, the tested form may be a part): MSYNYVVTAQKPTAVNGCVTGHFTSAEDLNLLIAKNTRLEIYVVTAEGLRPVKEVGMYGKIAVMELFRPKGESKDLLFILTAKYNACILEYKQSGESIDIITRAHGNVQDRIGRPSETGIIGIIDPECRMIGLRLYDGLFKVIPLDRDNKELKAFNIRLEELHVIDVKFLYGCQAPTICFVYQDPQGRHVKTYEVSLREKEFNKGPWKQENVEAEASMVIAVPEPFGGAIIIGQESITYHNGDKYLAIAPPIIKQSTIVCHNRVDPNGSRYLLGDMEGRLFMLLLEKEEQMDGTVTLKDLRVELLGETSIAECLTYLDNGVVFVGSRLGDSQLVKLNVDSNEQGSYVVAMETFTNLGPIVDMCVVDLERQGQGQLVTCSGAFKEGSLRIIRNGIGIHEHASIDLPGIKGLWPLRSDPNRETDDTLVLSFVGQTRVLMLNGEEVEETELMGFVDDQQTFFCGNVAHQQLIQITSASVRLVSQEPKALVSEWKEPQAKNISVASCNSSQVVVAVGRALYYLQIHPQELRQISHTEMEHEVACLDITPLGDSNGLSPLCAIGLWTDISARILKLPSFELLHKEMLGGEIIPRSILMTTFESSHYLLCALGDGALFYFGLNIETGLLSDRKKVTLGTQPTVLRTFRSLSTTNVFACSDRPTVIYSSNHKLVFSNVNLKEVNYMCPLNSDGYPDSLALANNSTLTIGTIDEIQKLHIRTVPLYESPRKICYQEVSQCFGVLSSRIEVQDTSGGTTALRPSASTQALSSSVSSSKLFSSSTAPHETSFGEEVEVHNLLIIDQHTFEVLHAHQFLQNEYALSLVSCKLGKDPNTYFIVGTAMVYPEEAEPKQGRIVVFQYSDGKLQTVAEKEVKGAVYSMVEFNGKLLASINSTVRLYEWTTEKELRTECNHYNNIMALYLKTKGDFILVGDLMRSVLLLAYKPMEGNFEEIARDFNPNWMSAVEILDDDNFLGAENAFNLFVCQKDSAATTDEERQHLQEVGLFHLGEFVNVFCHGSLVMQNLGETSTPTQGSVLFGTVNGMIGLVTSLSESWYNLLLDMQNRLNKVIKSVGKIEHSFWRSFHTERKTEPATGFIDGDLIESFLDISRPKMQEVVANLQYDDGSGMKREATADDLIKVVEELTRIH
T3 sequence (Q96SW2 whole entry): as the sequence (Q96SW2 whole entry, the tested form may be a part) above
T3 sequence (Q9UKS7 whole entry): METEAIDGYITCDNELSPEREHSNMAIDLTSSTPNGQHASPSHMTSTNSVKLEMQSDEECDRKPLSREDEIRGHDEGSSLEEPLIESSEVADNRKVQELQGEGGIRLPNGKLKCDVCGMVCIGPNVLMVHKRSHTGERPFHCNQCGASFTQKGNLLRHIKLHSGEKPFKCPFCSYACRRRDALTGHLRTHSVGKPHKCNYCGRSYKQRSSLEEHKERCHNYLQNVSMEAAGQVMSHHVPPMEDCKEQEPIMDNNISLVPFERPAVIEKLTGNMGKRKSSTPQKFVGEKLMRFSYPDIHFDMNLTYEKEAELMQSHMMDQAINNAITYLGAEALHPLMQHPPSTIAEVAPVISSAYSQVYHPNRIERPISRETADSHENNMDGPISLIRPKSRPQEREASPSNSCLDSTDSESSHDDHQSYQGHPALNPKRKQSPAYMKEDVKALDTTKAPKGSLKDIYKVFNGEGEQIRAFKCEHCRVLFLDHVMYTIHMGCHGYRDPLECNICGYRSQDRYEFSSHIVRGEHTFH
T2 sequence (Q13422 83-213 isoform Q13422-7 limits assumed): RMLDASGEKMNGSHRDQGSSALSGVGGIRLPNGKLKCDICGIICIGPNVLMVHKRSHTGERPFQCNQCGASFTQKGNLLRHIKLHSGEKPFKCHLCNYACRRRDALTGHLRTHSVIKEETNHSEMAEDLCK
T2 sequence (Q96SW2 whole entry partner, the tested form may be a part): as the sequence (Q96SW2 whole entry, the tested form may be a part) above
T2 sequence (Q16531 2-1140 partner limits assumed): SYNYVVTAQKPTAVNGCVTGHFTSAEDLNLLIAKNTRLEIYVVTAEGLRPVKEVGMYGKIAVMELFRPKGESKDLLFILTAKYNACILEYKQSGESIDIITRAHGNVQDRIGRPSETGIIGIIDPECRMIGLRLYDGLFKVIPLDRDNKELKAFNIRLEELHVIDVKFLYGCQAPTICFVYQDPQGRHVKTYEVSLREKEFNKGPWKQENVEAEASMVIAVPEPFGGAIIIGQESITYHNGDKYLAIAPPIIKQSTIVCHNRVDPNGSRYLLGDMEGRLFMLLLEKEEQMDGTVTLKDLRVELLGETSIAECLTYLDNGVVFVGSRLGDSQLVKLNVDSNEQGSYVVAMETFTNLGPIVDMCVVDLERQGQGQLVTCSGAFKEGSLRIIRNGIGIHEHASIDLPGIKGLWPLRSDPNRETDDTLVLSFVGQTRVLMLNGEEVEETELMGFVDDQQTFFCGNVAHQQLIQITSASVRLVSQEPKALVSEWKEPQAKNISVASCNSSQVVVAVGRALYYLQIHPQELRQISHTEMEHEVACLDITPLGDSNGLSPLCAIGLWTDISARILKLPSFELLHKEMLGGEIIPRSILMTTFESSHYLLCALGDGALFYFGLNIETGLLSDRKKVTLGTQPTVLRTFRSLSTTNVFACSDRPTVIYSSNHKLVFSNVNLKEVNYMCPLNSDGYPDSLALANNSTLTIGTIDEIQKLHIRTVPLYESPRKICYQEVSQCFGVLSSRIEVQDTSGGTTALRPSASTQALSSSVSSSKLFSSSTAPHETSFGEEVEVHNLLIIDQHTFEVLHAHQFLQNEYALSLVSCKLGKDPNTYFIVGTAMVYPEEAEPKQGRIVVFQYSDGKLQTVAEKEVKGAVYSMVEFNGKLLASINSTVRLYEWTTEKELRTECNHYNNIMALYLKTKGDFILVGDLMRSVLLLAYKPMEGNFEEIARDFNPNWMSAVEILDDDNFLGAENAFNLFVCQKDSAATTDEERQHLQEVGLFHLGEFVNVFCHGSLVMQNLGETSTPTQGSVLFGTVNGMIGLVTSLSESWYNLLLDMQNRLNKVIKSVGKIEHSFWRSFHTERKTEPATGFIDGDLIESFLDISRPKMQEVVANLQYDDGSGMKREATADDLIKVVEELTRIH
GSPT1, sequence (P15170 whole entry, the tested form may be a part): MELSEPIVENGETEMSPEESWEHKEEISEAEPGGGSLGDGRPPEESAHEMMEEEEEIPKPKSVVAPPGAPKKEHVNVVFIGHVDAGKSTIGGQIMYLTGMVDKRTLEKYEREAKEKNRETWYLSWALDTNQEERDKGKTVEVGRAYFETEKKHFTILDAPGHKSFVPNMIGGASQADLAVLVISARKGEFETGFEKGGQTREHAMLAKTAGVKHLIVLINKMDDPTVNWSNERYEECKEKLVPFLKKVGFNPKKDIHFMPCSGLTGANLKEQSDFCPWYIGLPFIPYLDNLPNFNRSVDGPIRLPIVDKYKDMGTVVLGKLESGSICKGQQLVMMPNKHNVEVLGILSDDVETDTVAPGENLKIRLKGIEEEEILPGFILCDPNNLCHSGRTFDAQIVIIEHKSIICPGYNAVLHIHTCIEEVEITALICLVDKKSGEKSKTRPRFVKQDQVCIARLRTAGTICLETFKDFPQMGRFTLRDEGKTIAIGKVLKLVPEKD
GSPT1, sequence (Q96SW2 whole entry, the tested form may be a part): as the sequence (Q96SW2 whole entry, the tested form may be a part) above
GSPT1, sequence (Q16531 whole entry partner, the tested form may be a part): as the sequence (Q16531 whole entry partner, the tested form may be a part) above

COC(=O)c1n[nH]c(NC2=CC(=O)N(C3CCC(=O)NC3=O)C2=O)n1 (stereo not drawn) [Compound 20, Methyl 5-((1-(2,6-dioxopiperidin-3-yl)-2,5-dioxo-2,5-dihydro-1H-pyrrol-3-yl)amino)-1H-1,2,4-triazole-3-carboxylate]
SALL4 ZNF1-2 GFP/RFP Relative Abundance [1, 6]: 0.894 | SALL4 ZNF1-2 GFP/RFP Relative Abundance [1, 7]: 0.908 | SALL4 ZNF1-2 GFP/RFP Relative Abundance [1, 8]: 0.892 | GSPT1 GFP/RFP Relative Abundance [2, 6]: 0.901 | GSPT1 GFP/RFP Relative Abundance [2, 7]: 1.036 | GSPT1 GFP/RFP Relative Abundance [2, 8]: 1.069 | IKZF1 GFP/RFP Relative Abundance [3, 6]: 0.721 | IKZF1 GFP/RFP Relative Abundance [3, 7]: 0.895 | IKZF1 GFP/RFP Relative Abundance [3, 8]: 0.342 | IKZF2 GFP/RFP Relative Abundance [4, 6]: 0.952 | IKZF2 GFP/RFP Relative Abundance [4, 7]: 0.987 | IKZF2 GFP/RFP Relative Abundance [4, 8]: 1.025 | TR-FRET-IKZF2 (Normalized to CC-885) [5, 9]: 0.050 | TR-FRET-IKZF2 (Normalized to CC-885) [5, 10]: 0.017 | TR-FRET-IKZF2 (Normalized to CC-885) [5, 11]: 0.014

O=C1CCC(N2C(=O)C=C(Nc3cccc(-c4nnn[nH]4)c3)C2=O)C(=O)N1 (stereo not drawn) [Compound 23, 3-(3-((3-(1H-tetrazol-5-yl)phenyl)amino)-2,5-dioxo-2,5-dihydro-1H-pyrrol-1-yl)piperidine-2,6-dione]
SALL4 ZNF1-2 GFP/RFP Relative Abundance [1, 6]: 0.922 | SALL4 ZNF1-2 GFP/RFP Relative Abundance [1, 7]: 0.979 | SALL4 ZNF1-2 GFP/RFP Relative Abundance [1, 8]: 0.981 | GSPT1 GFP/RFP Relative Abundance [2, 6]: 0.976 | GSPT1 GFP/RFP Relative Abundance [2, 7]: 0.936 | GSPT1 GFP/RFP Relative Abundance [2, 8]: 0.953 | IKZF1 GFP/RFP Relative Abundance [3, 6]: 0.866 | IKZF1 GFP/RFP Relative Abundance [3, 7]: 1.044 | IKZF1 GFP/RFP Relative Abundance [3, 8]: 0.756 | IKZF2 GFP/RFP Relative Abundance [4, 6]: 1.013 | IKZF2 GFP/RFP Relative Abundance [4, 7]: 1.016 | IKZF2 GFP/RFP Relative Abundance [4, 8]: 1.015 | TR-FRET-IKZF2 (Normalized to CC-885) [5, 9]: 0.326 | TR-FRET-IKZF2 (Normalized to CC-885) [5, 10]: 0.259 | TR-FRET-IKZF2 (Normalized to CC-885) [5, 11]: 0.196

COC(=O)CNC1=CC(=O)N(C2CCC(=O)NC2=O)C1=O (stereo not drawn) [Compound 13, Methyl (1-(2,6-dioxopiperidin-3-yl)-2,5-dioxo-2,5-dihydro-1H-pyrrol-3-yl)glycinate]
SALL4 ZNF1-2 GFP/RFP Relative Abundance [1, 6]: 0.962 | SALL4 ZNF1-2 GFP/RFP Relative Abundance [1, 7]: 1.017 | SALL4 ZNF1-2 GFP/RFP Relative Abundance [1, 8]: 1.017 | GSPT1 GFP/RFP Relative Abundance [2, 6]: 1.172 | GSPT1 GFP/RFP Relative Abundance [2, 7]: 1.162 | GSPT1 GFP/RFP Relative Abundance [2, 8]: 1.004 | IKZF1 GFP/RFP Relative Abundance [3, 6]: 1.069 | IKZF1 GFP/RFP Relative Abundance [3, 7]: 1.076 | IKZF1 GFP/RFP Relative Abundance [3, 8]: 1.058 | IKZF2 GFP/RFP Relative Abundance [4, 6]: 1.040 | IKZF2 GFP/RFP Relative Abundance [4, 7]: 1.005 | IKZF2 GFP/RFP Relative Abundance [4, 8]: 1.070 | TR-FRET-IKZF2 (Normalized to CC-885) [5, 9]: 0.032 | TR-FRET-IKZF2 (Normalized to CC-885) [5, 10]: 0.028 | TR-FRET-IKZF2 (Normalized to CC-885) [5, 11]: 0.019

Cc1ccc(NC(=O)NCCNC2=CC(=O)N(C3CCC(=O)NC3=O)C2=O)cc1Cl (stereo not drawn) [Compound 41, 1-(3-chloro-4-methylphenyl)-3-(2-((1-(2,6-dioxopiperidin-3-yl)-2,5-dioxo-2,5-dihydro-1H-pyrrol-3-yl)amino)ethyl)urea]
SALL4 ZNF1-2 GFP/RFP Relative Abundance [1, 6]: 1.020 | SALL4 ZNF1-2 GFP/RFP Relative Abundance [1, 7]: 0.994 | SALL4 ZNF1-2 GFP/RFP Relative Abundance [1, 8]: 1.004 | GSPT1 GFP/RFP Relative Abundance [2, 6]: 0.038 | GSPT1 GFP/RFP Relative Abundance [2, 7]: 0.062 | GSPT1 GFP/RFP Relative Abundance [2, 8]: 0.077 | IKZF1 GFP/RFP Relative Abundance [3, 6]: 0.638 | IKZF1 GFP/RFP Relative Abundance [3, 7]: 0.909 | IKZF1 GFP/RFP Relative Abundance [3, 8]: 1.003 | IKZF2 GFP/RFP Relative Abundance [4, 6]: 0.969 | IKZF2 GFP/RFP Relative Abundance [4, 7]: 1.027 | IKZF2 GFP/RFP Relative Abundance [4, 8]: 1.040 | TR-FRET-IKZF2 (Normalized to CC-885) [5, 9]: 0.170 | TR-FRET-IKZF2 (Normalized to CC-885) [5, 10]: 0.126 | TR-FRET-IKZF2 (Normalized to CC-885) [5, 11]: 0.104

CN(C)C(=O)Cc1ccc(NC2=CC(=O)N(C3CCC(=O)NC3=O)C2=O)cc1 (stereo not drawn) [Compound 36, 2-(4-((1-(2,6-dioxopiperidin-3-yl)-2,5-dioxo-2,5-dihydro-1H-pyrrol-3-yl)amino)phenyl)-N,N-dimethylacetamide]
SALL4 ZNF1-2 GFP/RFP Relative Abundance [1, 6]: 1.000 | SALL4 ZNF1-2 GFP/RFP Relative Abundance [1, 7]: 1.033 | SALL4 ZNF1-2 GFP/RFP Relative Abundance [1, 8]: 0.974 | GSPT1 GFP/RFP Relative Abundance [2, 6]: 1.112 | GSPT1 GFP/RFP Relative Abundance [2, 7]: 1.009 | GSPT1 GFP/RFP Relative Abundance [2, 8]: 1.006 | IKZF1 GFP/RFP Relative Abundance [3, 6]: 0.687 | IKZF1 GFP/RFP Relative Abundance [3, 7]: 0.796 | IKZF1 GFP/RFP Relative Abundance [3, 8]: 0.860 | IKZF2 GFP/RFP Relative Abundance [4, 6]: 0.943 | IKZF2 GFP/RFP Relative Abundance [4, 7]: 1.027 | IKZF2 GFP/RFP Relative Abundance [4, 8]: 1.049 | TR-FRET-IKZF2 (Normalized to CC-885) [5, 9]: 0.183 | TR-FRET-IKZF2 (Normalized to CC-885) [5, 10]: 0.148 | TR-FRET-IKZF2 (Normalized to CC-885) [5, 11]: 0.115

O=C1CCC(N2C(=O)C=C(Nc3ccc(-n4ccnc4)cc3)C2=O)C(=O)N1 (stereo not drawn) [Compound 29, 3-(3-((4-(1H-imidazol-1-yl)phenyl)amino)-2,5-dioxo-2,5-dihydro-1H-pyrrol-1-yl)piperidine-2,6-dione]
SALL4 ZNF1-2 GFP/RFP Relative Abundance [1, 6]: 0.958 | SALL4 ZNF1-2 GFP/RFP Relative Abundance [1, 7]: 0.913 | SALL4 ZNF1-2 GFP/RFP Relative Abundance [1, 8]: 0.908 | GSPT1 GFP/RFP Relative Abundance [2, 6]: 0.790 | GSPT1 GFP/RFP Relative Abundance [2, 7]: 0.913 | GSPT1 GFP/RFP Relative Abundance [2, 8]: 0.729 | IKZF1 GFP/RFP Relative Abundance [3, 6]: 0.495 | IKZF1 GFP/RFP Relative Abundance [3, 7]: 0.516 | IKZF1 GFP/RFP Relative Abundance [3, 8]: 0.602 | IKZF2 GFP/RFP Relative Abundance [4, 6]: 0.982 | IKZF2 GFP/RFP Relative Abundance [4, 7]: 1.005 | IKZF2 GFP/RFP Relative Abundance [4, 8]: 0.942 | TR-FRET-IKZF2 (Normalized to CC-885) [5, 9]: 0.347 | TR-FRET-IKZF2 (Normalized to CC-885) [5, 10]: 0.297 | TR-FRET-IKZF2 (Normalized to CC-885) [5, 11]: 0.270

O=C1CCC(N2C(=O)C=C(Nc3ccc4cc[nH]c4c3)C2=O)C(=O)N1 (stereo not drawn) [Compound 37, 3-(3-((1H-indol-6-yl)amino)-2,5-dioxo-2,5-dihydro-1H-pyrrol-1-yl)piperidine-2,6-dione]
SALL4 ZNF1-2 GFP/RFP Relative Abundance [1, 6]: 0.939 | SALL4 ZNF1-2 GFP/RFP Relative Abundance [1, 7]: 0.865 | SALL4 ZNF1-2 GFP/RFP Relative Abundance [1, 8]: 0.891 | GSPT1 GFP/RFP Relative Abundance [2, 6]: 0.787 | GSPT1 GFP/RFP Relative Abundance [2, 7]: 1.111 | GSPT1 GFP/RFP Relative Abundance [2, 8]: 1.010 | IKZF1 GFP/RFP Relative Abundance [3, 6]: 0.315 | IKZF1 GFP/RFP Relative Abundance [3, 7]: 0.349 | IKZF1 GFP/RFP Relative Abundance [3, 8]: 0.344 | IKZF2 GFP/RFP Relative Abundance [4, 6]: 0.938 | IKZF2 GFP/RFP Relative Abundance [4, 7]: 1.004 | IKZF2 GFP/RFP Relative Abundance [4, 8]: 0.988 | TR-FRET-IKZF2 (Normalized to CC-885) [5, 9]: 0.620 | TR-FRET-IKZF2 (Normalized to CC-885) [5, 10]: 0.422 | TR-FRET-IKZF2 (Normalized to CC-885) [5, 11]: 0.355

CN(C)C(=O)Cc1cccc(NC2=CC(=O)N(C3CCC(=O)NC3=O)C2=O)c1 (stereo not drawn) [Compound 35, 2-(3-((1-(2,6-dioxopiperidin-3-yl)-2,5-dioxo-2,5-dihydro-1H-pyrrol-3-yl)amino)phenyl)-N,N-dimethylacetamide]
SALL4 ZNF1-2 GFP/RFP Relative Abundance [1, 6]: 0.928 | SALL4 ZNF1-2 GFP/RFP Relative Abundance [1, 7]: 0.903 | SALL4 ZNF1-2 GFP/RFP Relative Abundance [1, 8]: 0.888 | GSPT1 GFP/RFP Relative Abundance [2, 6]: 0.975 | GSPT1 GFP/RFP Relative Abundance [2, 7]: 1.074 | GSPT1 GFP/RFP Relative Abundance [2, 8]: 0.938 | IKZF1 GFP/RFP Relative Abundance [3, 6]: 0.154 | IKZF1 GFP/RFP Relative Abundance [3, 7]: 0.181 | IKZF1 GFP/RFP Relative Abundance [3, 8]: 0.182 | IKZF2 GFP/RFP Relative Abundance [4, 6]: 0.667 | IKZF2 GFP/RFP Relative Abundance [4, 7]: 0.709 | IKZF2 GFP/RFP Relative Abundance [4, 8]: 0.806 | TR-FRET-IKZF2 (Normalized to CC-885) [5, 9]: 0.520 | TR-FRET-IKZF2 (Normalized to CC-885) [5, 10]: 0.447 | TR-FRET-IKZF2 (Normalized to CC-885) [5, 11]: 0.402

Reference: patent US12227488B2, “Small molecule degraders of Helios and methods of use” (DANA-FARBER CANCER INSTITUTE, INC., priority 2018, dated 2025)
